This is an account of results in patent US8252793B2, “Bradykinin receptor agonists and uses thereof to treat ocular hypertension and glaucoma” (Alcon Research, Ltd., priority 2010, dated 2012).

Structures are written as SMILES.

In test [1] the target is T1, BK receptors in human ciliary muscle cells (h-CM) (Homo sapiens, UniProt P30411).
T1 construct: h-CM cells expressing BK receptors were seeded; endogenous in cells; host or cells: human ciliary muscle (h-CM) cells
T1 sequence (P30411 1-391): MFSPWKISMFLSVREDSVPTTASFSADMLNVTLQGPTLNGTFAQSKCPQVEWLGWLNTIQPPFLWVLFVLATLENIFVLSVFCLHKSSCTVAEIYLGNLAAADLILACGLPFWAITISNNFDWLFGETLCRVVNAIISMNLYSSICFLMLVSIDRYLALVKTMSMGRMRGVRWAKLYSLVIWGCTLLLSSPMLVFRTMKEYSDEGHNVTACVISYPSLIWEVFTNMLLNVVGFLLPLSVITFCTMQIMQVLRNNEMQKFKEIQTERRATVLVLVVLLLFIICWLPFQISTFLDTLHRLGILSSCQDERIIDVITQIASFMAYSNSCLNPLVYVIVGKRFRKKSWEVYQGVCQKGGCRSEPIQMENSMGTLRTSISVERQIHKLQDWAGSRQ
Nature of the test: Functional assay measuring [Ca2+]i mobilization (FLIPR) in h-CM cells. The class given is cell-based. Particulars: class symbols (in μM), read-out: CaM (EC50). As to the method: On the day of the experiment, media was removed, cells were rinsed and 50 μL of serum-free media added. One vial of FLIPR Calcium Assay Kit dye was reconstituted in 50 mL of a FLIPR buffer consisting of Hank's Balanced Salt Solution (HBSS), 20 mM HEPES, and 2.5 mM probenecid, pH 7.4. Cells were loaded with the calcium-sensitive dye by addition of an equal volume (50 μL) to each well of the 96-well plate and incubated with dye for 1 h at 23° C. […] After this time, the test compound plate and cell plate were placed in a Fluorescence Imaging Plate Reader (FLIPR-Tetra®) instrument (Molecular Devices/MDSPharma, Sunnyvale, Calif.). At the beginning of an experimental run, a signal test was performed to check the basal fluorescence signal from the dye-loaded cells and the uniformity of the signal across the plate. […] An aliquot (25 μL) of the test compound was added to the existing 100 μL dye-loaded cells at a dispensing speed of 50 μL/sec. Intracellular calcium mobilization was measured by monitoring real-time changes in cellular fluorescence upon test compound addition. Fluorescence data were collected in real-time at 1.0 sec intervals for the first 60 seconds and at 6.0 second intervals for an additional 120 seconds. Baseline fluorescence readings were normalized across the plate and background-corrected from negative control wells. […] EC50 values were determined by 4-parameter nonlinear curve fitting of the concentration-response curve. Calibration of the instrument was performed using manufacturer's standard procedures.

Test [2] deals with T2, recombinant human bradykinin B2 receptor (Homo sapiens, UniProt P30411).
T2 construct: expressed in transfected cells; host or cells: Chinese hamster ovary (CHO) cells, membrane homogenates
T2 sequence (P30411 1-391): T1 sequence (P30411 1-391)
Nature of the test: [3H]-BK competition radioligand binding to human cloned B2 receptor (CHO cell membranes). Particulars: 0.2 nM [3H]-bradykinin, CHO membranes, 60 min 23° C.; mean ± SEM or single value; Ki from IC50 by Cheng-Prusoff; read-out: [3H]-BK Binding to Human Cloned B2 Receptor (Ki). How it is done: Chinese hamster ovary (CHO) cell membrane homogenates (2.5 μg protein) expressing the recombinant human bradykinin B2 receptor were incubated for 60 min at 23° C. with 0.2 nM [^3H]-bradykinin (95.5 Ci/mmole, PerkinElmer) in the absence or presence of the test compound in a buffer containing 50 mM Tris/HCl (pH 7.4), 0.2 g/L 1-10-phenanthroline and 0.1% BSA. All reagent and test compound additions to the assay plates were made using Biomek 3000 robotic workstations (Beckman Instruments, Fullerton, Calif.). Nonspecific binding was determined in the presence of 1 μM unlabeled bradykinin. Following the incubation, the assay was terminated by rapid filtration under vacuum through glass fiber filters (GF/C, PerkinElmer) presoaked with 0.3% polyethyleneimine and rinsed several times with an ice-cold 50 mM Tris-HCl buffer using a 96-sample cell harvester (Tomtec). The filters were air-dried and the radioactivity counted in a beta-scintillation counter (Topcount, PerkinElmer) using a scintillation cocktail (Microscint 20, PerkinElmer) (Sharif and Whiting, Neurochem. Int. 18: 89-96, 1991). Competitive binding inhibition curves were generated using a 7-point concentration—response of test compound in duplicate. Bradykinin peptide was also tested as an internal control in the assay. The data were analyzed using nonlinear, iterative curve-fitting to obtain the potency and intrinsic activities of the test agents as previously described (Sharif et al. J. Pharmacol. Exp. Ther. 286: 1094-1102, 1998; Sharif et al. Invest Ophthalmol. Vis. Sci. 39:2562-2571, 1998; Kelly et al. J. Pharmacol. Exp. Ther. 304: 238-245, 2003). Determined IC50 values were converted to Ki values using the standard Cheng-Prusoff equation.

In test [3] the test system is primary human ciliary muscle cells (h-CM). As to the kind of experiment: Total prostaglandin (PG) release from primary h-CM cells (EIA). The class given is cell-based. To be noted: Homo sapiens, 1 h, 1 hour at 37° C., class symbols (in μM). As to the method: BK agonist compounds of Formula 1 were evaluated for the ability to induce prostaglandin (PG) release from primary human ciliary muscle cells (h-CM). Briefly, h-CM cells were grown to confluence in FNC-coated 24-well culture plates and serum-starved (0.8% FBS) for 24 hours prior to the experiment. Cells were stimulated with a 9-pt concentration-response (0.1 nM-10 μM) of bradykinin or BK agonist for 1 hour at 37° C. with subsequent sample recovery and processing for total PG measurement. Total PG measurement was determined using a total Prostaglandin Screening EIA kit (cat#514012) purchased from Cayman Chemical (Ann Arbor, Mich.). The assay was conducted according to the package insert from the manufacturer.

Consider `CNC(=O)c1ccc(CCC(=O)NCC(=O)N(C)c2ccc(Cl)c(COc3cccc4c(OCc5nccn5C)cc(C)nc34)c2Cl)cc1` [Compound 71], for which the concentration giving a half-maximal response (EC50) in test [1] and in test [3] was less than 0.1 µM in each case. Further, the Ki – broadly, the equilibrium dissociation constant of an inhibitor or competing ligand from its target – in test [2] was 17 nM.

`COc1nc2c(OCc3c(C)ccc(N(C)C(=O)CNC(=O)CCc4cnc5[nH]c(=O)oc5c4)c3C)cccc2n1Cc1ccccn1` [Compound 3, N-(2-((3-(((2-methoxy-1-(pyridin-2-ylmethyl)-1H-benzo[d]imidazol-4-yl)oxy)methyl)-2,4-dimethylphenyl)(methyl)amino)-2-oxoethyl)-3-(2-oxo-2,3-dihydrooxazolo[4,5-b]pyridin-6-yl)propanamide]: the results for the EC50 in test [1] and in test [3] were less than 0.1 µM and more than 1 µM, respectively. In addition, the Ki in test [2] came to 273 nM.

Turning to `COC(=O)Nc1ccc(CCC(=O)NCC(=O)N(C)c2ccc(C)c(COc3cccc4c3nc(OC)n4Cc3ccccn3)c2C)cn1` [Compound 4, methyl (5-(3-((2-((3-(((2-methoxy-1-(pyridin-2-ylmethyl)-1H-benzo[d]imidazol-4-yl)oxy)methyl)-2,4-dimethylphenyl)(methyl)amino)-2-oxoethyl)amino)-3-oxopropyl)pyridin-2-yl)carbamate], the results for the EC50 in test [1] and in test [3] were 0.1 to 1 µM and more than 1 µM, respectively. The Ki in test [2] amounted to 158 nM.

On to `CNC(=O)N1CCN(CC(=O)NCC(=O)N(C)c2ccc(Cl)c(COc3cccc4c3nc(OC)n4Cc3ccccn3)c2Cl)CC1` [Compound 20], for which the EC50 (as a rule, the midpoint of the concentration-response curve) in test [1] was 0.1 to 1 µM; in test [3] it was more than 1 µM. Also, the Ki in test [2] was found to be 1090 ± 138 nM.

As for `COCCNC(=O)c1ccc(CCC(=O)NCC(=O)N(C)c2ccc(Cl)c(COc3cccc4c3nc(OC)n4Cc3ccccn3)c2Cl)cc1` [Compound 1, 4-(3-((2-((2,4-dichloro-3-(((2-methoxy-1-(pyridin-2-ylmethyl)-1H-benzo[d]imidazol-4-yl)oxy)methyl)phenyl)(methyl)amino)-2-oxoethyl)amino)-3-oxopropyl)-N-(2-methoxyethyl)benzamide], the EC50 in test [1] and in test [3] was less than 0.1 µM in each case. For the same compound, in test [2], the Ki worked out at 54 nM.

Take `COc1nc2c(OCc3c(Cl)ccc(N(C)C(=O)CNC(=O)[C@@H]4CCN(C(=O)OC(C)(C)C)C4)c3Cl)cccc2n1Cc1ccccn1` [Compound 62]: the EC50 in test [1] was less than 0.1 µM; in test [3], 0.1 to 1 µM. For the same compound, the Ki in test [2] amounted to 105 nM.

In the case of `COc1nc2c(OCc3c(Cl)ccc(N(C)C(=O)CNC(=O)CCC4CN=C(N)NC4)c3Cl)cccc2n1Cc1ccccn1` (stereo not drawn) [Compound 63], the results for the EC50 in test [1] and in test [3] were less than 0.1 µM and more than 1 µM, respectively. Besides, the Ki in test [2] stood at 1190 nM.

Turning to `COc1nc2c(OCc3c(Cl)ccc(N(C)C(=O)CNC(=O)CCCNC(C)=O)c3Cl)cccc2n1Cc1ccccn1` [Compound 70], the results for the EC50 in test [1] and in test [3] were less than 0.1 µM and 0.1 to 1 µM, respectively. Besides, the Ki in test [2] was determined as 599 nM.

As to `CNC(=O)c1ccc(CCC(=O)NCC(=O)N(C)c2ccc(Cl)c(COc3cccc4c(OCc5ccccn5)cc(C)nc34)c2Cl)cc1` [Compound 30], the EC50 in test [1] and in test [3] was 0.1 to 1 µM in each case. Besides, in test [2], the Ki was found to be 3 nM.

Take `CNC(=O)C1CCN(CCC(=O)NCC(=O)N(C)c2ccc(Cl)c(COc3cccc4c3nc(OC)n4Cc3ccccn3)c2Cl)CC1` [Compound 11]: the EC50 in test [1] was less than 0.1 µM; in test [3] it was more than 1 µM. Further, the Ki in test [2] is 391 ± 35 nM.

Consider `COc1nc2c(OCc3c(Cl)ccc(N(C)C(=O)CNC(=O)CCc4ccc(NC(C)=O)nc4)c3Cl)cccc2n1Cc1ccccn1` [Compound 32, 3-(6-acetamidopyridin-3-yl)-N-(2-((2,4-dichloro-3-(((2-methoxy-1-(pyridin-2-ylmethyl)-1H-benzo[d]imidazol-4-yl)oxy)methyl)phenyl)(methyl)amino)-2-oxoethyl)propanamide], for which the EC50 in test [1] and in test [3] was less than 0.1 µM each time. In addition, the Ki in test [2] came to 25 ± 8 nM.

As for `CNC(=O)[C@@H]1CC[C@H](CCC(=O)NCC(=O)N(C)c2ccc(Cl)c(COc3cccc4c3nc(OC)n4Cc3ccccn3)c2Cl)CN1` [Compound 39, (2S,5R)-5-(3-((2-((2,4-dichloro-3-(((2-methoxy-1-(pyridin-2-ylmethyl)-1H-benzo[d]imidazol-4-yl)oxy)methyl)phenyl)(methyl)amino)-2-oxoethyl)amino)-3-oxopropyl)-N-methylpiperidine-2-carboxamide], the EC50 in test [1] and in test [3] was 0.1 to 1 µM in each case. Also, the Ki in test [2] stood at 514 nM.

As to `COc1nc2c(OCc3c(Cl)ccc(N(C)C(=O)CNC(=O)CN4CCO[C@@H](C(=O)NC5CC5)C4)c3Cl)cccc2n1Cc1ccccn1` [Compound 84], the EC50 in test [1] and in test [3] was less than 0.1 µM throughout. For the same compound, the Ki in test [2] is 78.3 nM.

With `CCOC(=O)NC1=NCC(CCC(=O)NCC(=O)N(C)c2ccc(Cl)c(COc3cccc4c3nc(OC)n4Cc3ccccn3)c2Cl)CN1` (stereo not drawn) [Compound 9, Ethyl (5-(3-((2-((2,4-dichloro-3-(((2-methoxy-1-(pyridin-2-ylmethyl)-1H-benzo[d]imidazol-4-yl)oxy)methyl)phenyl)(methyl)amino)-2-oxoethyl)amino)-3-oxopropyl)-1,4,5,6-tetrahydropyrimidin-2-yl)carbamate], the EC50 was less than 0.1 µM in test [1] and 0.1 to 1 µM in test [3]. Moreover, the Ki in test [2] amounted to 667 ± 101 nM.

With `CNC(=O)[C@@H]1CN(CC(=O)NCC(=O)N(C)c2ccc(Cl)c(COc3cccc4c3nc(OC)n4Cc3ccccn3)c2Cl)CCO1` [Compound 45, (S)-4-(2-((2-((2,4-dichloro-3-(((2-methoxy-1-(pyridin-2-ylmethyl)-1H-benzo[d]imidazol-4-yl)oxy)methyl)phenyl)(methyl)amino)-2-oxoethyl)amino)-2-oxoethyl)-N-methylmorpholine-2-carboxamide], the EC50 in test [1] and in test [3] was less than 0.1 µM throughout. In addition, the Ki in test [2] is 40 nM.

`CNC(=O)N1CCN(CCCC(=O)NCC(=O)N(C)c2ccc(Cl)c(COc3cccc4c3nc(OC)n4Cc3ccccn3)c2Cl)CC1` [Compound 12]: the EC50 in test [1] is less than 0.1 µM; in test [3], more than 1 µM. Further, the Ki in test [2] was 261 ± 195 nM.

In the case of `CNC(=O)[C@H]1CCCN(CC(=O)NCC(=O)N(C)c2ccc(Cl)c(COc3cccc4c3nc(OC)n4Cc3ccccn3)c2Cl)C1` [Compound 36, (S)-1-(2-(2-((2,4-dichloro-3-((2-methoxy-1-(pyridin-2-ylmethyl)-1H-benzo[d]imidazol-4-yloxy)methyl)phenyl)(methyl)amino)-2-oxoethylamino)-2-oxoethyl)-N-methylpiperidine-3-carboxamide], the figures for the concentration giving a half-maximal response (EC50) in test [1] and in test [3] were less than 0.1 µM and 0.1 to 1 µM, respectively. In addition, the Ki in test [2] stood at 220 nM.
